In brackets after ≈: the same amount, converted by molar mass. Non-standard residues stand in square brackets, D forms with d. Residues, ends and D or L forms follow the SMILES beside them. Nspe = C[C@H](NCC(=O)O)c1ccccc1; Nlys = NCCCCNCC(=O)O
Key:
Escherichia coli = assay: Antibacterial activity against Escherichia coli then incubated at 37 degC for 24 hrs by broth dilution assay; format: functional
Bacillus subtilis = assay: Antibacterial activity against Bacillus subtilis then incubated at 37 degC for 24 hrs by broth dilution assay; format: functional
[1] = Cytotoxicity against human Jurkat cells assessed as reduction in cell viability incubated for 24 hrs by MTS assay; format: cell-based; details: read-out: LC50
[2] = (§1) Induction of hemolysis in Sprague-Dawley rat erythrocytes incubated at 37 degC for 60 mins by spectrophotometry; format: cell-based, Erythrocyte; details: Sprague-Dawley, erythrocytes, read-out: HD50
Erythrocyte = assay: as §1; format: cell-based; details: erythrocyte, 1 h
[3] = Induction of hemolysis in Sprague-Dawley rat erythrocytes at 200 uM incubated at 37 degC for 60 mins by spectrophotometry; format: cell-based, Erythrocyte; details: read-out: Activity
[4] = Cytotoxicity against human LNCAP cells assessed as reduction in cell viability incubated for 24 hrs by MTS assay; format: cell-based; details: read-out: LC50
[5] = Cytotoxicity against human MRC5 cells assessed as reduction in cell viability incubated for 24 hrs by MTS assay; format: cell-based; details: read-out: LC50

`C[C@@H](c1ccc(F)cc1)N(CC(N)=O)C(=O)CN(C(=O)CN(CCCCN)C(=O)CN(C(=O)CN(C(=O)CN(CCCCN)C(=O)CN(C(=O)CN(C(=O)CN(CCCCN)C(=O)CN(C(=O)CN(C(=O)CNCCCCN)[C@@H](C)c1ccc(F)cc1)[C@@H](C)c1ccc(F)cc1)[C@@H](C)c1ccc(F)cc1)[C@@H](C)c1ccc(F)cc1)[C@@H](C)c1ccc(F)cc1)[C@@H](C)c1ccc(F)cc1)[C@@H](C)c1ccc(F)cc1` showed an MIC (Escherichia coli) of 3.1 µM (≈ 6.09 µg/mL), an MIC (Bacillus subtilis) of 0.4 µM (≈ 0.785 µg/mL) and a CC50 at 24 h [1] of 2.47 µM. For the same compound, the HC50 at 1 h [2] was < 6.25 µM, the HD10 (Erythrocyte) was < 6.25 µM and the hemolysis at 1 h, 200 µM [3] was 100%. The CC50 at 24 h [4] was 9.5 µM and the CC50 at 24 h [5] was 9.5 µM.
In the case of `C[C@@H](c1ccc(Cl)cc1)N(CC(N)=O)C(=O)CN(C(=O)CN(CCCCN)C(=O)CN(C(=O)CN(C(=O)CN(CCCCN)C(=O)CN(C(=O)CN(C(=O)CN(CCCCN)C(=O)CN(C(=O)CN(C(=O)CNCCCCN)[C@@H](C)c1ccc(Cl)cc1)[C@@H](C)c1ccc(Cl)cc1)[C@@H](C)c1ccc(Cl)cc1)[C@@H](C)c1ccc(Cl)cc1)[C@@H](C)c1ccc(Cl)cc1)[C@@H](C)c1ccc(Cl)cc1)[C@@H](C)c1ccc(Cl)cc1`, the MIC (Escherichia coli) is reported as > 6.1 µM, the MIC (Bacillus subtilis) is reported as 6.1 µM (≈ 12.8 µg/mL) and the CC50 at 24 h [1] is reported as 1.58 µM. For the same compound, the HC50 at 1 h [2] was 10.4 µM, the HD10 (Erythrocyte) was < 6.25 µM and the hemolysis at 1 h, 200 µM [3] was 100%. For the same compound, the CC50 at 24 h [4] was 10 µM and the CC50 at 24 h [5] was 3 µM.
In the case of `Cc1ccc([C@H](C)N(CC(N)=O)C(=O)CN(C(=O)CN(CCCCN)C(=O)CN(C(=O)CN(C(=O)CN(CCCCN)C(=O)CN(C(=O)CN(C(=O)CN(CCCCN)C(=O)CN(C(=O)CN(C(=O)CNCCCCN)[C@@H](C)c2ccc(C)cc2)[C@@H](C)c2ccc(C)cc2)[C@@H](C)c2ccc(C)cc2)[C@@H](C)c2ccc(C)cc2)[C@@H](C)c2ccc(C)cc2)[C@@H](C)c2ccc(C)cc2)[C@@H](C)c2ccc(C)cc2)cc1`, the MIC (Escherichia coli) is reported as > 6.1 µM, the MIC (Bacillus subtilis) is reported as 0.8 µM (≈ 1.55 µg/mL) and the HC50 at 1 h [2] is reported as 8.3 µM. For the same compound, the HD10 (Erythrocyte) was < 6.25 µM, the hemolysis at 1 h, 200 µM [3] was 100% and the CC50 at 24 h [4] was 12 µM. For the same compound, the CC50 at 24 h [5] was 8 µM.
With `C[C@@H](c1ccccc1)N(CC(=O)N(CCCCN)CC(=O)N(CC(=O)N(CC(=O)N(CCCCN)CC(=O)N(CC(=O)N(CC(=O)N(CCCCN)CC(N)=O)[C@@H](C)c1ccccc1)[C@@H](C)c1ccccc1)[C@@H](C)c1ccccc1)[C@@H](C)c1ccccc1)C(=O)CN(C(=O)CNCCCCN)[C@@H](C)c1ccccc1` (H-[Nlys][Nspe][Nspe][Nlys][Nspe][Nspe][Nlys][Nspe][Nspe][Nlys]-NH2) the MIC (Escherichia coli) was 1.6 µM (≈ 2.4 µg/mL), the MIC (Bacillus subtilis) was 0.8 µM (≈ 1.2 µg/mL) and the CC50 at 24 h [1] was 28.9 µM. The HC50 at 1 h [2] was > 200 µM, the HD10 (Erythrocyte) was > 200 µM and the hemolysis at 1 h, 200 µM [3] was 9.8%. The CC50 at 24 h [5] was 80.5 µM.
For `C[C@@H](c1ccccc1)N(CC(N)=O)C(=O)CN(C(=O)CN(CCCCN)C(=O)CN(C(=O)CN(C(=O)CN(CCCCN)C(=O)CN(C(=O)CN(C(=O)CN(CCCCN)C(=O)CN(C(=O)CN(C(=O)CNCCCCN)[C@@H](C)c1ccccc1)[C@@H](C)c1ccccc1)[C@@H](C)c1ccccc1)[C@@H](C)c1ccccc1)[C@@H](C)c1ccccc1)[C@@H](C)c1ccccc1)[C@@H](C)c1ccccc1` (H-[Nlys][Nspe][Nspe][Nlys][Nspe][Nspe][Nlys][Nspe][Nspe][Nlys][Nspe][Nspe]-NH2), the MIC (Escherichia coli) was 1.6 µM (≈ 2.91 µg/mL), the MIC (Bacillus subtilis) was 0.8 µM (≈ 1.46 µg/mL) and the CC50 at 24 h [1] was 2.21 µM. For the same compound, the HC50 at 1 h [2] was 63.4 µM, the HD10 (Erythrocyte) was 9.1 µM and the hemolysis at 1 h, 200 µM [3] was 100%. For the same compound, the CC50 at 24 h [4] was 5 µM and the CC50 at 24 h [5] was 8 µM.
`C[C@@H](c1ccccc1)N(CC(=O)N(CCCCN)CC(=O)N(CC(=O)N(CC(=O)N(CCCCN)CC(=O)N(CC(=O)N(CC(=O)N(CCCCN)CC(=O)N(CC(=O)N(CC(=O)N(CCCCN)CC(N)=O)[C@@H](C)c1ccccc1)[C@@H](C)c1ccccc1)[C@@H](C)c1ccccc1)[C@@H](C)c1ccccc1)[C@@H](C)c1ccccc1)[C@@H](C)c1ccccc1)C(=O)CN(C(=O)CNCCCCN)[C@@H](C)c1ccccc1` (H-[Nlys][Nspe][Nspe][Nlys][Nspe][Nspe][Nlys][Nspe][Nspe][Nlys][Nspe][Nspe][Nlys]-NH2) showed an MIC (Escherichia coli) of 1.6 µM (≈ 3.12 µg/mL), an MIC (Bacillus subtilis) of 0.4 µM (≈ 0.779 µg/mL) and a CC50 at 24 h [1] of 5.04 µM. The HC50 at 1 h [2] was > 200 µM, the HD10 (Erythrocyte) was 19.5 µM and the hemolysis at 1 h, 200 µM [3] was 48.1%. The CC50 at 24 h [5] was 10 µM.
For `C[C@H](c1ccccc1)N(CC(N)=O)C(=O)CN(C(=O)CN(CCCCN)C(=O)CN(C(=O)CN(C(=O)CN(CCCCN)C(=O)CN(C(=O)CN(C(=O)CNCCCCN)[C@H](C)c1ccccc1)[C@@H](C)c1ccccc1)[C@H](C)c1ccccc1)[C@@H](C)c1ccccc1)[C@H](C)c1ccccc1` (stereo in doubt), the MIC (Escherichia coli) was 3.1 µM (≈ 4.24 µg/mL), the MIC (Bacillus subtilis) was 1.6 µM (≈ 2.19 µg/mL) and the CC50 at 24 h [1] was 18.6 µM. The HC50 at 1 h [2] was > 200 µM, the HD10 (Erythrocyte) was 119.5 µM and the hemolysis at 1 h, 200 µM [3] was 38.7%. For the same compound, the CC50 at 24 h [4] was 27 µM and the CC50 at 24 h [5] was 40 µM.
In the case of `CC[C@H](C)[C@H](NC(=O)CN)C(=O)NCC(=O)N[C@@H](CCCCN)C(=O)N[C@@H](Cc1ccccc1)C(=O)N[C@@H](CC(C)C)C(=O)N[C@@H](CCCCN)C(=O)N[C@@H](CCCCN)C(=O)N[C@@H](C)C(=O)N[C@@H](CCCCN)C(=O)N[C@@H](CCCCN)C(=O)N[C@@H](Cc1ccccc1)C(=O)NCC(=O)N[C@@H](CCCCN)C(=O)N[C@@H](C)C(=O)N[C@@H](Cc1ccccc1)C(=O)N[C@H](C(=O)N[C@@H](CCCCN)C(=O)N[C@H](C(=O)N[C@@H](CC(C)C)C(=O)N[C@@H](CCCCN)C(=O)N[C@@H](CCCCN)C(N)=O)[C@@H](C)CC)C(C)C` [PEXIGANAN] (H-GIGKFLKKAKKFGKAFVKILKK-NH2), the MIC (Escherichia coli) is reported as 0.8 µM (≈ 1.98 µg/mL), the MIC (Bacillus subtilis) is reported as 0.4 µM (≈ 0.991 µg/mL) and the HC50 at 1 h [2] is reported as > 200 µM. It also gave an HD10 (Erythrocyte) of 113.4 µM, a hemolysis at 1 h, 200 µM [3] of 21.5% and a CC50 at 24 h [5] of 21.2 µM.

— ChEMBL document CHEMBL4177724, “Effect of side chain hydrophobicity and cationic charge on antimicrobial activity and cytotoxicity of helical peptoids” (Bioorg Med Chem Lett, 2018)
